Measurements from patent publication US11174243B2, “Succinate forms and compositions of Bruton's tyrosine kinase inhibitors” (Sunesis Pharmaceuticals, Inc., priority 2016, dated 2021).
Where two headings read alike, the source gives them in different places. Values belong to the compound of their own block, whether it stands above or below them.

Legend:
[1] = Phase 1a single-dose study in humans, Stage 1: pharmacokinetics; format: in vivo, human; details: for Cmax / Vd/F / AUC(0-t) / Tmax / half-life: both sexes, human, plasma; for AUC(0-t): read-out: AUC0-24
Experimental: A first-in-human Phase 1a randomized, double-blind, placebo-controlled, single-dose study, was conducted in 3 stages: In Stage 1, four sequential cohorts of 8 subjects each were randomly assigned to receive progressively higher single oral administrations of Compound 2 at doses of 50, 100, 200, and 300 mg (n=6 per cohort; 3 males and 3 females) or placebo (n=2 per cohort; 1 male and 1 female).
The primary endpoint of safety was assessed by monitoring adverse events (AEs), laboratory abnormalities, and cardiac findings (ECG). Secondary endpoints included evaluation of the PK parameters of area under the plasma concentration-time curve (AUC), maximum plasma concentration (Cmax), time of maximum concentration (Tmax), apparent volume of distribution (Vd/F), terminal elimination half-life (t1/2), terminal elimination rate constant (λz), and apparent clearance (Cl/F) as well as the PD parameter of BTK inhibition in whole blood.
Compound 2 is a succinate salt. Plasma concentrations of the free base (Compound 1) were measured and used for estimation of PK parameters and elaboration of concentration/PD relationships.

BTK = target: T1, BTK (Homo sapiens, UniProt Q06187); assay: Phase 1a single-dose study in humans: BTK inhibition (pBTK) in whole blood; format: in vivo
T1 construct: from tissue; host or cells: human whole blood
T1 sequence (Q06187 whole entry): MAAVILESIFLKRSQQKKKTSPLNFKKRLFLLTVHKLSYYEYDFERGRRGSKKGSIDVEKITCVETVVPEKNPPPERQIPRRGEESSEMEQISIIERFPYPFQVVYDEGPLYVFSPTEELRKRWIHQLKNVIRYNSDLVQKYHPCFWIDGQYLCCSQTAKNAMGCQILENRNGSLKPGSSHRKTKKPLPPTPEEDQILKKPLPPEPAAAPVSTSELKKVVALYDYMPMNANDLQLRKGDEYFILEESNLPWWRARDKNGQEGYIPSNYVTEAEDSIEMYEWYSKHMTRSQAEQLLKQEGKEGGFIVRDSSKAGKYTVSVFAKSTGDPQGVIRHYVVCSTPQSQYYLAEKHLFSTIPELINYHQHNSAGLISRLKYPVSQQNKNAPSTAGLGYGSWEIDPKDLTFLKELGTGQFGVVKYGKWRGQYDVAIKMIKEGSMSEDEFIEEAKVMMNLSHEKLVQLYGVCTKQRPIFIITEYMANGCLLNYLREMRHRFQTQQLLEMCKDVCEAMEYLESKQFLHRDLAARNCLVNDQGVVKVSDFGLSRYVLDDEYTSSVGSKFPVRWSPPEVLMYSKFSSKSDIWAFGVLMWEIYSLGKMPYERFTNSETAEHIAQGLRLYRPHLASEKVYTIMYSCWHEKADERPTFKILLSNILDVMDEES
Experimental: The primary endpoint of safety was assessed by monitoring adverse events (AEs), laboratory abnormalities, and cardiac findings (ECG). Secondary endpoints included evaluation of the PK parameters of area under the plasma concentration-time curve (AUC), maximum plasma concentration (Cmax), time of maximum concentration (Tmax), apparent volume of distribution (Vd/F), terminal elimination half-life (t1/2), terminal elimination rate constant (λz), and apparent clearance (Cl/F) as well as the PD parameter of BTK inhibition in whole blood. BTK inhibition was calculated based on phosphorylated BTK (pBTK) and total BTK (totBTK). All postdose blood samples and one predose sample were lysed in the presence of protease and phosphatase inhibitors (PPi); a second predose sample was lysed without PPi to estimate maximum reduction in pBTK attainable. The ratio of predose pBTK/totBTK without PPi was subtracted from each pBTK/totBTK with PPi, and % pBTK vs predose was calculated: […]

CD86 expression = assay: CpG induced CD86 expression (flow cytometry); format: cell-based, human; details: 3.2 μM CpG stimulation, 1 μM
Experimental: Methods: Primary CLL B cells were isolated from the whole blood of consented patients by FICOLL density centrifugation and rosette-sep negative selection. Annexin V and propidium iodide flow cytometry was used to measure patient CLL cell viability and 7AAD was used to measure viability in stromal co-culture. CD40 and CD86 expression was evaluated via flow cytometry subsequent to sustained 3.2 μM CpG stimulation. BCR signaling in primary CLL cells was investigated by immunoblot succeeding 1 hour treatment and following 1 hour or 24 hours of incubation with Compound 1 in XLA cell lines. MTS values were read after 24 hours of drug incubation. ITK inhibition was investigated via immunoblot after stimulation with anti-CD3 and anti-CD28 and incubation with Compound 1 for 1 hour. Compound 1 was used at a concentration of 1 μM in preclinical studies unless otherwise noted.

TXK = target: T2, TXK (Homo sapiens, UniProt P42681); assay: Kinase selectivity, TXK (Kd)
T2 sequence (P42681 1-527): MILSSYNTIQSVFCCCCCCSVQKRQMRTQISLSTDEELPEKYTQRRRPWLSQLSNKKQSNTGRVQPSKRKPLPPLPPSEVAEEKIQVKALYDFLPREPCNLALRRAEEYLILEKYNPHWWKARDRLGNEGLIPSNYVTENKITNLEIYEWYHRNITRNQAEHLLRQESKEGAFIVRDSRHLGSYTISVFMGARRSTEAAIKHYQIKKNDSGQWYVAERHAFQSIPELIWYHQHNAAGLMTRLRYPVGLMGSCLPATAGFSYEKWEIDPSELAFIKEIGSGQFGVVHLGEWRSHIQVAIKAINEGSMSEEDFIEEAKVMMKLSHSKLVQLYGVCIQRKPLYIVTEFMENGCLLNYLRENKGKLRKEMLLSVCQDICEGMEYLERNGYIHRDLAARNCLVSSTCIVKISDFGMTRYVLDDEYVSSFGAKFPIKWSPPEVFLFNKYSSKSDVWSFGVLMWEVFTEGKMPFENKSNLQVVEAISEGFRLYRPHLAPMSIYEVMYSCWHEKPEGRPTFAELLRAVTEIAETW

Single-dose PK in dog = format: in vivo, male beagle dogs; details: beagle, plasma
Experimental: A series of single-dose PK studies were conducted in rat, dog, and monkey to investigate the plasma PK of Compound 2 following single oral and single intravenous (IV) administration of Compound 2.
A study was conducted to assess the PK of Compound 2 formulated as a suspension or as a solid in capsule. […] Three different dogs were used for each dose level. […] Inter-animal variability in Compound 2 free base plasma systemic exposure was observed after IV and oral administration irrespective of formulation.

[2] = oral, Cohort 1 (50 mg), mean (SD)
[3] = oral, Cohort 2 (100 mg), mean (SD)
[4] = oral, Cohort 3 (200 mg), mean (SD)
[5] = oral, Cohort 4 (300 mg), mean (SD)
[6] = 1 mg/kg, IV, dose 1, 70% PEG400/H2O, free base measured
[7] = male, 5 mg/kg, PO, dose not given, 0.1% CMC/0.2% Tween, free base measured

t1/2 ([1]; 50 mg (single dose), after dosing with Compound 2, mean): 8.14 h
CL/F ([1]; Cohort 1 (50 mg), mean (SD)): 6139 (1250) mL/hr
CL/F ([1]; Cohort 2 (100 mg), mean (SD)): 7162 (2900) mL/hr
CL/F ([1]; Cohort 3 (200 mg), mean (SD)): 7886 (3724) mL/hr
CL/F ([1]; Cohort 4 (300 mg), mean (SD)): 7615 (1595) mL/hr
Cmax ([1]; oral, 50 mg (single dose), after dosing with Compound 2, mean): 1910 ng/mL
Vd/F [1, 2]: 69.6 L
AUC(0-t) [1, 2]: 7830 ng·h/mL
Tmax ([1]; oral, Cohort 1 (50 mg), mean (SD), read-out: Tmax): 1.17 h
half-life ([1]; oral, Cohort 1 (50 mg), mean (SD), read-out: t1/2 (converted)): 8.14 h
Vd/F [1, 3]: 72.9 L
Cmax ([1]; oral, Cohort 2 (100 mg), mean (SD), N 6): 3400 ng/mL
AUC(0-t) [1, 3]: 14500 ng·h/mL
Tmax ([1]; oral, Cohort 2 (100 mg), mean (SD), read-out: Tmax): 1.25 h
half-life ([1]; oral, Cohort 2 (100 mg), mean (SD), read-out: t1/2 (converted)): 7.43 h
Vd/F [1, 4]: 118 L
Cmax ([1]; oral, Cohort 3 (200 mg), mean (SD), N 6): 5960 ng/mL
AUC(0-t) [1, 4]: 29900 ng·h/mL
Tmax ([1]; oral, Cohort 3 (200 mg), mean (SD), read-out: Tmax): 1 h
half-life ([1]; oral, Cohort 3 (200 mg), mean (SD), read-out: t1/2 (converted)): 10.5 h
Vd/F [1, 5]: 177 L
Cmax ([1]; oral, Cohort 4 (300 mg), mean (SD), N 6): 6800 ng/mL
AUC(0-t) [1, 5]: 35400 ng·h/mL
Tmax ([1]; oral, Cohort 4 (300 mg), mean (SD), read-out: Tmax): 1.5 h
half-life ([1]; oral, Cohort 4 (300 mg), mean (SD), read-out: t1/2 (converted)): 17 h
half-life ([1]; 50-300 mg single oral dose, read-out: Mean t1/2 values across all dose cohorts): 7.43 to 17 h
Cmax ([1]; Cohort 1 (50 mg Compound 2, single oral), mean (SD), N 6): 1910 ng/mL
Tmax ([1]; all dose cohorts, oral, range: 0.5-3.0, read-out: median Tmax): 1 h
% BTK inhibition (BTK; Compound 1 plasma concentrations lower or close to 100 ng/mL): ≤ 75%
inhibition of pBTK (BTK; Compound 1 plasma concentrations ≥200 ng/mL): ≥ 85%
inhibition of pBTK (BTK; all dose levels, rapid, profound and prolonged, FIG. 13): ~100%
inhibition (pBTK) (BTK; plasma concentrations above 1000 ng/mL, most of the subjects, largely around 100%): > 85%
Kd (TXK): ≥ 200 nM
SMILES: NC(=O)[C@H]1CCN(c2ncnc(N)c2F)C[C@@H]1N1CCC[C@@H](Nc2cc(Cl)cc(C(F)(F)F)c2)C1=O [Compound 1, (3R,3′R,4′S)-1′-(6-amino-5-fluoropyrimidin-4-yl)-3-((3-chloro-5-(trifluoromethyl)phenyl)amino)-2-oxo-[1,3′-bipiperidine]-4′-carboxamide]
dose proportionality of total exposure (AUC and Cmax) ([1]; 50-300 mg single oral dose): increased approximately proportionally with dose
decrease of CpG induced CD86 expression (CD86 expression): 15.7%

AUC(0-inf) (Single-dose PK in dog; [6]): 1080 ng·h/mL
C0 (Single-dose PK in dog; [6]): 1920 ng/mL
half-life (Single-dose PK in dog; [6]): 0.8 h
AUC(0-inf) (Single-dose PK in dog; [7]): 3520 ng·h/mL
Cmax (Single-dose PK in dog; [7]): 2970 ng/mL
Tmax (Single-dose PK in dog; [7]): 0.8 h
bioavailability (Single-dose PK in dog; male, 5 mg/kg, PO, dose not given, 0.1% CMC/0.2% Tween, read-out: % F (oral bioavailability)): 65%
SMILES: NC(=O)[C@H]1CCN(c2ncnc(N)c2F)C[C@@H]1N1CCC[C@@H](Nc2cc(Cl)cc(C(F)(F)F)c2)C1=O [Compound 2]
